# Measured values: patent publication US7514254B2, “Plant-derived alkaline alpha-galactosidase” (The State of Israel, Ministry of Agriculture & Rural …, priority 1998, dated 2009)
# B1: melon (Cucumis melo) fruit alkaline alpha-galactosidase Form I (Cucumis melo) (protein)
# chain: MTVGAGITISDANLTVLGNRVLSDVHNNITLTAAPGGGVMNGAFIGVDQSDQIGSRRVFPIGKLIGLRFLCAFRFKLWWMTQRMGCSGQEVPFETQFLVVETRDGSNIAGNGEEGDAVYTVFLPILEGDFRAVLQGNDNNEIEICLESGDPSVDGFEGSHLVFVGAGSDPFETITYAVKSVEKHLQTFAHRERKKMPDILNWFGWCTWDAFYTDVTSDGVKKGLESFENGGIPPKFVIIDDGWQSVAKDATSADCKADNTANFANRLTHIKENYKFQKDGKEGERIENPALGLQHIVSYMKEKHATKYVYVWHAITGYWGGVSAGVKEMEQYESKIAYPVASPGVESNEPCDALNSITKTGLGLVNPEKVFNFYNEQHSYLASAGVDGVKVDVQNILETLGAGHGGRVKLARKYHQALEASISRNFQDNGIISCMSHNTDGLYSSKRNAVIRASDDFWPRDPASHTIHIASVAYNSLFLGEFMQPDWDMFHSLHPMAEYHGAARAVGGCAIYVSDKPGQHDFNLLKKLVLPDGSILRAKLPGRPTKDCLFTDPARDGKSLLKIWNLNDLSGVVGVFNCQGAGWCKVGKKNLIHDENPDTITGVIRAKDVSYLWKIAGESWTGDAVIFSHLAGEVVYLPQDASMPITLKPREFDVFTVVPVKELVNDIKFAPIGLIKMFNSGGAVKEMNHQPGSSNVSLKVRGSGPFGAYSSSKPKRVAVDSEEVEFMYDEGGLITIDLKVPEKELYLWDIRIEL
# B2: alpha-galactosidase from Escherichia coli K12: alpha-galactosidase of Schmid and Schmitt, tetrameric protein (protein, UniProt P06720 1-451, looked up)
# Alpha-galactosidase: MMSAPKITFIGAGSTIFVKNILGDVFHREALKTAHIALMDIDPTRLEESHIVVRKLMDSAGASGKITCHTQQKEALEDADFVVVAFQIGGYEPCTVTDFEVCKRHGLEQTIADTLGPGGIMRALRTIPHLWQICEDMTEVCPDATMLNYVNPMAMNTWAMYARYPHIKQVGLCHSVQGTAEELARDLNIDPATLRYRCAGINHMAFYLELERKTADGSYVNLYPELLAAYEAGQAPKPNIHGNTRCQNIVRYEMFKKLGYFVTESSEHFAEYTPWFIKPGREDLIERYKVPLDEYPKRCVEQLANWHKELEEYKKASRIDIKPSREYASTIMNAIWTGEPSVIYGNVRNDGLIDNLPQGCCVEVACLVDANGIQPTKVGTLPSHLAALMQTNINVQTLLTEAILTENRDRVYHAAMMDPHTAAVLGIDEIYALVDDLIAAHGDWLPGWLHR
# Experiments:
# [1] = tested on: melon (Cucumis melo) fruit acid form alpha-galactosidase; assay: Substrate kinetics (Lineweaver-Burk) of acid alpha-galactosidase; format: biochemical, muskmelon (Cucumis melo L. cv C-8); conditions: for Km / Vmax: Lineweaver-Burk
# Method: For routine analysis and monitoring the activity in the purification steps, alpha-galactosidase was assayed as described by Smart and Pharr (“Characterization of alpha-galactosidase from cucumber leaves”, Plant Physiology, 66:731-734, 1980), using p-nitrophenyl alpha-galactoside (pNPG) as substrate. […] The reaction was terminated after 10 min by adding 1 ml of 5% (w/v) Na2CO3 and activity expressed as nmol nitrophenol per min as measured at 410 nm. […] The assay was started by adding 50 μl enzyme preparation at 35 C and terminated after 10 to 20 min by 2 min boiling. […] For the partial purification of the acid form of alpha-galactosidase the fractions active at pH 5.5 were pooled and concentrated by reverse dialysis against solid sucrose. […] The active fractions were then desalted by dialysis against buffer A for 12 hours with two changes of the buffer. This enzyme fraction was used for the characterization of the acidic form of alpha-galactosidase. […] The substrate specificity of the alpha-galactosidases was tested with pNPG, stachyose, raffinose, melibiose or guar gum (Sigma).
# [2] = biological target: T1, melon (Cucumis melo) fruit alkaline alpha-galactosidase Form I (Cucumis melo, UniProt Q84NI7); assay: Substrate kinetics (Lineweaver-Burk) of alkaline alpha-galactosidase Form I; conditions: for Vmax: Lineweaver-Burk
# T1 sequence (Q84NI7 1-754): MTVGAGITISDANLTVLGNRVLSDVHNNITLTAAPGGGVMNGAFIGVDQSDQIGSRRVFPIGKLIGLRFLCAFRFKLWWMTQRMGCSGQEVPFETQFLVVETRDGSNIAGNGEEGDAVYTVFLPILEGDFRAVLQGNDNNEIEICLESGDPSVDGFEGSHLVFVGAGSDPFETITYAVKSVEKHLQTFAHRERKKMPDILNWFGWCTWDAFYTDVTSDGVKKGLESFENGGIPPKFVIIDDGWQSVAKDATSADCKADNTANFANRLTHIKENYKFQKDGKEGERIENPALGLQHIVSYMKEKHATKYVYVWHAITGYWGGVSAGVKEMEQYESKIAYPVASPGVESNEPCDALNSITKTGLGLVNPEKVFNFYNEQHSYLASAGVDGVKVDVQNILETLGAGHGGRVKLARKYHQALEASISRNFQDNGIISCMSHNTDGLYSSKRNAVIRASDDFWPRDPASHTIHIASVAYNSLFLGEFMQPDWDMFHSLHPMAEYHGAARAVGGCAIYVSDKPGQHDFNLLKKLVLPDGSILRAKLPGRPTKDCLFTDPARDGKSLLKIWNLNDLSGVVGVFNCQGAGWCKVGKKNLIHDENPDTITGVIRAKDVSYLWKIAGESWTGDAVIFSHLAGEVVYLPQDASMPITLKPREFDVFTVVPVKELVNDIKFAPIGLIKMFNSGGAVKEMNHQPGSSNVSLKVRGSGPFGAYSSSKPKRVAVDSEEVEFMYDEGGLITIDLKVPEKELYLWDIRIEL
# Method: (§1) For routine analysis and monitoring the activity in the purification steps, alpha-galactosidase was assayed as described by Smart and Pharr (“Characterization of alpha-galactosidase from cucumber leaves”, Plant Physiology, 66:731-734, 1980), using p-nitrophenyl alpha-galactoside (pNPG) as substrate. Reaction was initiated by adding 50 μl enzyme aliquot to either 200 μl 100 mM pH 5.5 McIlvaine buffer or 100 mM pH 7.5 HEPES buffer, containing 5 mM pNPG at 35 C. The reaction was terminated after 10 min by adding 1 ml of 5% (w/v) Na2CO3 and activity expressed as nmol nitrophenol per min as measured at 410 nm. […] The assay was started by adding 50 μl enzyme preparation at 35 C and terminated after 10 to 20 min by 2 min boiling.
# (§2) The fractions from the DEAE-Sepharose chromatography which were active at pH 7.5 were pooled and dialyzed against buffer A for 12 h prior to loading onto an HPLC ion exchange chromatography column (Mono-Q HR 5/5, Pharmacia, Uppsala, Sweden), previously equilibrated with buffer A. Bound proteins were eluted with a linear gradient of 0.1 to 0.45 M NaCl and the active fractions were detected using pNPG as substrate at pH 7.5 as described above. […] For the further purification of Form II the active fractions of the peak II were chromatographed on hydrophobic interaction chromatography. The fractions were pooled, brought to 1 M (NH4)2SO4 and loaded on to a hydrophobic interaction column (phenyl-Sepharose CL-4B, 0.5×12 cm, Pharmacia, Uppsala, Sweden) previously equilibrated with buffer A containing 1 M (NH4)2SO4. The protein was eluted with a reverse stepwise gradient from 1 to 0 M (NH4)2SO4 with 50 mM intervals in buffer A. Fractions containing the activity peak were collected and dialyzed for 12 h against buffer A and the dialysate was concentrated by reverse dialysis against solid sucrose. The enzyme, partially purified by hydrophobic interaction chromatography, was used for the characterization of Form II. The active fractions from the hydrophobic interaction column were further purified. Active fractions were separated electrophoretically using a Mini Prep Cell (Bio-Rad Laboratories, Hercules, Calif.) for discontinuous native-PAGE with 7% polyacrylamide, according to manufacturer's instructions. Fractions (0.25 ml/fraction) were assayed at pH 7.5 with pNPG as substrate for the activity. The active fractions were pooled, concentrated by Vivaspin Concentrator (Vivascience LTD, Lincoln, England), and run in a 8% SDS-PAGE. Proteins in the SDS-PAGE were identified using Coomassie Blue staining.
# Therefore, the active fractions from the Mono-Q column were used for the characterization of Form I. In addition, the Form I enzyme was further purified, as described in the following section.
# [3] = biological target: T2, melon (Cucumis melo) fruit alkaline alpha-galactosidase Form II (Cucumis melo, UniProt Q84NI6); assay: Substrate kinetics (Lineweaver-Burk) of alkaline alpha-galactosidase Form II; format: biochemical, muskmelon (Cucumis melo L. cv C-8); conditions: for Vmax: Lineweaver-Burk
# T2 construct: native 102 kDa, denatured 92 kDa; assayed at pH 7.5
# T2 sequence (Q84NI6 1-772): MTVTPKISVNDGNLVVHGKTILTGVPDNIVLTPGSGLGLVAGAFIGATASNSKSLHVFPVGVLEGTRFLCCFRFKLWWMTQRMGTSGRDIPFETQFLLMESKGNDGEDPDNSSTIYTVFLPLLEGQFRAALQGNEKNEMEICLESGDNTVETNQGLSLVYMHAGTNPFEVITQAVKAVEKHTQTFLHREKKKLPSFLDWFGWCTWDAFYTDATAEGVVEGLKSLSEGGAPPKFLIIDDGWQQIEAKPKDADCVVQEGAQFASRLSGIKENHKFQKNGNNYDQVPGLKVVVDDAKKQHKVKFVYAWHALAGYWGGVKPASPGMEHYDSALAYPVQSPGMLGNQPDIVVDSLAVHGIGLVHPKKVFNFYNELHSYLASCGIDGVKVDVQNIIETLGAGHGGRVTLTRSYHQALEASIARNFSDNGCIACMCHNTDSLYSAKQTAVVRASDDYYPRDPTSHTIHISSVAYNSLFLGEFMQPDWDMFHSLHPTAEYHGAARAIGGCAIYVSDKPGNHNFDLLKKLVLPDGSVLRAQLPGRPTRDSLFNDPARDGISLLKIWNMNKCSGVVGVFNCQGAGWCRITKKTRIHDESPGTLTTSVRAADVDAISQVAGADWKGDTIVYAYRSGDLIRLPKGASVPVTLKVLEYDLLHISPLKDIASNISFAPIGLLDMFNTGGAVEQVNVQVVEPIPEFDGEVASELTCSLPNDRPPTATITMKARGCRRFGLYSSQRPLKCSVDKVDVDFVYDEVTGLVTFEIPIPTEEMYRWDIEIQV
# Method: as §1, §2
# [4] = tested on: Escherichia coli K12 alpha-galactosidase; conditions: Schmid and Schmitt 1976; cited from earlier work
# [5] = tested on: Pseudomonas fluorescens H-601 alpha-galactosidase; conditions: Hashimoto et al. 1991; relative Km values; cited from earlier work
# [6] = substrate: O=[N+]([O-])c1ccc(O[C@H]2O[C@H](CO)[C@H](O)[C@H](O)[C@H]2O)cc1; assay: purified protein, by the assay type; conditions: other: alkaline Form I; Lineweaver-Burk; 35.0 °C
# [7] = substrate: OC[C@H]1O[C@H](OC[C@H]2OC(O)[C@H](O)[C@@H](O)[C@@H]2O)[C@H](O)[C@@H](O)[C@H]1O; assay: purified protein, by the assay type; conditions: other: alkaline Form I; Lineweaver-Burk; 35.0 °C
# [8] = substrate: OC[C@H]1O[C@H](OC[C@H]2O[C@H](OC[C@H]3O[C@H](O[C@]4(CO)O[C@H](CO)[C@@H](O)[C@@H]4O)[C@H](O)[C@@H](O)[C@@H]3O)[C@H](O)[C@@H](O)[C@H]2O)[C@H](O)[C@@H](O)[C@H]1O; assay: purified protein, by the assay type; conditions: other: alkaline Form I; Lineweaver-Burk; 35.0 °C
# [9] = substrate: OC[C@H]1O[C@H](OC[C@H]2O[C@H](O[C@]3(CO)O[C@H](CO)[C@@H](O)[C@@H]3O)[C@H](O)[C@@H](O)[C@@H]2O)[C@H](O)[C@@H](O)[C@H]1O; assay: purified protein, by the assay type; conditions: other: alkaline Form I; Lineweaver-Burk; 35.0 °C
# [10] = raffinose versus melibiose; literature; cited from earlier work
molecule,measurement,setting,value
"OC[C@H]1O[C@H](OC[C@H]2OC(O)[C@H](O)[C@@H](O)[C@@H]2O)[C@H](O)[C@@H](O)[C@H]1O (stereo partly drawn) [Melibiose, 6-O-alpha-D-galactopyranosyl-D-glucose]",Vmax/Km ratio,[1],0.27
same,Km,[1],700 µM
same,Vmax,[1],0.19 μmol mg^−1 protein min^−1
same,Vmax,[2],0.3 μmol mg^−1 protein min^−1
same,Vmax,[3],0.23 μmol mg^−1 protein min^−1
same,Km,[4],3200 µM
same,Km,[5],3200 µM
"O=[N+]([O-])c1ccc(O[C@H]2O[C@H](CO)[C@H](O)[C@H](O)[C@H]2O)cc1 [pNPG, p-nitrophenyl alpha-galactopyranoside]",Vmax/Km ratio,[1],5.00
same,Km,[1],300 µM
same,Vmax,[1],1.5 μmol mg^−1 protein min^−1
same,pNPG concentration above which enzyme is inhibited (substrate inhibition),[1]; pNPG as substrate,above 5 mM
same,Vmax/Km ratio,[2],1.17
same,Vmax,[2],1.4 μmol mg^−1 protein min^−1
same,Vmax/Km ratio,[3],2.63
same,Vmax,[3],7.9 μmol mg^−1 protein min^−1
B1,Km,[6],1200 µM
same,Km,[7],20000 µM
same,Vmax,[7],0.3 µmol/min
same,Km,[8],4000 µM
same,Vmax,[8],0.24 µmol/min
same,Km,[9],1500 µM
same,Vmax,[9],0.56 µmol/min
B2,activity with raffinose as compared to melibiose,[10],about 4%
